IC50 data for 18 molecules are collected here from patent publication US20150284381A1, “AMINO-PYRIDINE-CONTAINING SPLEEN TYROSINE KINASE (SYK) INHIBITORS” (MERCK SHARP & DOHME CORP., priority 2012, published 2015).

This experiment deals with T1, recombinant human GST-Syk (Homo sapiens, UniProt P43405).
T1 construct: purchased Carna Biosciences 08-176
In words: Homogeneous Time-Resolved Fluorescence (HTRF) assay for the recombinant human Syk enzyme. The format is biochemical. The settings on record: recombinant human GST-Syk 5 pM, ATP 25 μM, 45 min at rt, read-out: rhSyk. On the procedure:
Homogeneous Time-Resolved Fluorescence (HTRF) Assay for the Recombinant Human Syk Enzyme
A recombinant GST-hSyk fusion protein was used to measure potency of compounds to inhibit human Syk activity. The recombinant human GST-Syk (Carna Biosciences #08-176) (5 pM nominal concentration) was incubated with various concentrations of the inhibitor diluted in DMSO (0.1% final concentration) for 10 minutes at rt in 15 mM Tris-HCl (pH 7.5), 0.01% tween 20, 2 mM DTT in 384 well plate format. To initiate the reaction the biotinylated substrate peptide (250 nM final concentration) that contains the phosphorylation site for Syk was added with magnesium (5 mM final concentration) and ATP (25 μM final concentration). Final volume of the reaction was 10 μL. Phosphorylation of the peptide was allowed to proceed for 45′ at rt. To quench the reaction and detect the phosphorylated product, 2 nM of a Europium-anti-phosphotyrosine antibody (Perkin Elmer #AD0161) and 70 nM SA-APC (Perkin-Elmer #CR130-100) were added together in 15 mM Tris pH 7.5, 40 mM EDTA, 0.01% tween 20. Final volume of the quenching solution was 10 μL. The resulting HTRF signal was measured after 30 minutes on a EnVision (Perkin-Elmer) reader using a time-resolved fluorescence protocol. IC50 was determined following 10-dose titration (10 μM to 0.508 nM) and four parameter logistic curve fitting using an assay data analyzer.
Turning to `Cc1cc(Nc2cc(C(F)(F)F)ccn2)nc(-c2cnc(C3(O)CCCc4c3ccc(C(=O)O)c4F)s2)c1` (single isomer, unassigned) [Example 1i, (R or S)-1-fluoro-5-hydroxy-5-[5-(4-methyl-6-{[4-(trifluoromethyl)pyridin-2-yl]amino}pyridin-2-yl)-1,3-thiazol-2-yl]-5,6,7,8-tetrahydronaphthalene-2-carboxylic acid], the IC50 was 2.19 nM.

With `Cc1cc(Nc2cc(C(C)F)ccn2)nc(-c2cnc([C@@]3(O)CCc4cc(C(=O)O)ccc43)s2)c1` (single isomer, unassigned) [Example 2J, (1R)-1-[5-(6-{[4-((R or S)-1-fluoroethyl)pyridin-2-yl]amino}-4-methylpyridin-2-yl)-1,3-thiazol-2-yl]-1-hydroxy-2,3-dihydro-1H-indene-5-carboxylic acid], the IC50 came out at 0.04 nM. On to `Cc1cc(Nc2cc(C(C)F)ccn2)nc(-c2cnc([C@@]3(O)CCc4cc(C(=O)O)ccc43)s2)c1` (single isomer, unassigned) [Example 2K, (1R)-1-[5-(6-{[4-((R or S)-1-fluoroethyl)pyridin-2-yl]amino}-4-methylpyridin-2-yl)-1,3-thiazol-2-yl]-1-hydroxy-2,3-dihydro-1H-indene-5-carboxylic acid], for which the IC50 was 0.05 nM.

Turning to `Cc1cc(Nc2cc(-c3cn[nH]c3)ccn2)nc(-c2cnc(C3(O)CCCc4cc(C(=O)O)ccc43)s2)c1` (single isomer, unassigned) [Example 4B-1, 5-Hydroxy-5-[5-(4-methyl-6-{[4-(1H-pyrazol-4-yl)pyridin-2-yl]amino}pyridin-2-yl)-1,3-thiazol-2-yl]-5,6,7,8-tetrahydronaphthalene-2-carboxylic acid], the IC50 was determined as 1.2 nM.

In the case of `Cc1cc(Nc2cc(-c3cn[nH]c3)ccn2)nc(-c2cnc(C3(O)CCCc4cc(C(=O)O)ccc43)s2)c1` (single isomer, unassigned) [Example 4B-2, 5-Hydroxy-5-[5-(4-methyl-6-{[4-(1H-pyrazol-4-yl)pyridin-2-yl]amino}pyridin-2-yl)-1,3-thiazol-2-yl]-5,6,7,8-tetrahydronaphthalene-2-carboxylic acid], the IC50 was 0.8 nM. With `Cc1cc(Nc2cc(-c3cn[nH]c3)ccn2)nc(-c2cnc(C3(O)CCCc4cc(C(=O)N(C)C)ccc43)s2)c1` (single isomer, unassigned) [Example 4C-1, 5-Hydroxy-N,N-dimethyl-5-[5-(4-methyl-6-{[4-(1H-pyrazol-4-yl)pyridin-2-yl]amino}pyridin-2-yl)-1,3-thiazol-2-yl]-5,6,7,8-tetrahydronaphthalene-2-carboxamide], the IC50 came to 1.04 nM.

For the molecule `Cc1cc(Nc2cc(-c3cn[nH]c3)ccn2)nc(-c2cnc(C3(O)CCCc4cc(C(=O)N(C)C)ccc43)s2)c1` (single isomer, unassigned) [Example 4C-2, 5-Hydroxy-N,N-dimethyl-5-[5-(4-methyl-6-{[4-(1H-pyrazol-4-yl)pyridin-2-yl]amino}pyridin-2-yl)-1,3-thiazol-2-yl]-5,6,7,8-tetrahydronaphthalene-2-carboxamide], the IC50 was determined as 757 nM. With `Cc1cc(Nc2cc(C(F)(F)F)ccn2)nc(-c2cnc([C@@]3(O)CCCc4c3ccc(C(=O)O)c4O)s2)c1` (single isomer, unassigned) [Example 7A, 1,5-Dihydroxy-5-[5-(4-methyl-6-{[4-(trifluoromethyl)pyridin-2-yl]amino}pyridin-2-yl)-1,3-thiazol-2-yl]-5,6,7,8-tetrahydronaphthalene-2-carboxylic acid], the IC50 was found to be 4.61 nM.

`Cc1cc(Nc2cc(C(F)(F)F)ccn2)nc(-c2cnc([C@@]3(O)CCCc4c3ccc(C(=O)O)c4O)s2)c1` (single isomer, unassigned) [Example 7B, 1,5-Dihydroxy-5-[5-(4-methyl-6-{[4-(trifluoromethyl)pyridin-2-yl]amino}pyridin-2-yl)-1,3-thiazol-2-yl]-5,6,7,8-tetrahydronaphthalene-2-carboxylic acid]: the IC50 was found to be 0.24 nM. As to `Cc1cc(Nc2cc(C(C)F)ccn2)nc(-c2cnc(C3(O)CCCc4cc(C(=O)O)ccc43)s2)c1` (single isomer, unassigned) [Example 8A, 5-(5-(6-((4-(1-Fluoroethyl)pyridin-2-yl)amino)-4-methylpyridin-2-yl)thiazol-2-yl)-5-hydroxy-5,6,7,8-tetrahydronaphthalene-2-carboxylic acid], the IC50 was determined as 2 nM. Regarding `Cc1cc(Nc2cc(C(C)F)ccn2)nc(-c2cnc(C3(O)CCCc4cc(C(=O)O)ccc43)s2)c1` (single isomer, unassigned) [Example 8B, 5-(5-(6-((4-(1-Fluoroethyl)pyridin-2-yl)amino)-4-methylpyridin-2-yl)thiazol-2-yl)-5-hydroxy-5,6,7,8-tetrahydronaphthalene-2-carboxylic acid], the IC50 is 0.1 nM.

Turning to `Cc1cc(Nc2cc(C(C)F)ccn2)nc(-c2cnc(C3(O)CCCc4cc(C(=O)O)ccc43)s2)c1` (single isomer, unassigned) [Example 8C, 5-(5-(6-((4-(1-Fluoroethyl)pyridin-2-yl)amino)-4-methylpyridin-2-yl)thiazol-2-yl)-5-hydroxy-5,6,7,8-tetrahydronaphthalene-2-carboxylic acid], the IC50 was 2 nM. Turning to `Cc1cc(Nc2cc(C(C)F)ccn2)nc(-c2cnc(C3(O)CCCc4cc(C(=O)O)ccc43)s2)c1` (single isomer, unassigned) [Example 8D, 5-(5-(6-((4-(1-Fluoroethyl)pyridin-2-yl)amino)-4-methylpyridin-2-yl)thiazol-2-yl)-5-hydroxy-5,6,7,8-tetrahydronaphthalene-2-carboxylic acid], the IC50 was found to be 0.1 nM.

Consider `Cc1ccnc(Nc2cc(C)cc(-c3cnc([C@@]4(O)CCc5cc(C(=O)O)ccc54)s3)n2)c1` [Example 2A, (1R)-1-hydroxy-1-(5-{4-methyl-6-[(4-methylpyridin-2-yl)amino]pyridin-2-yl}-1,3-thiazol-2-yl)-2,3-dihydro-1H-indene-5-carboxylic acid], for which the IC50 was 0.15 nM. For the molecule `CCc1ccnc(Nc2cc(C)cc(-c3cnc([C@@]4(O)CCc5cc(C(=O)O)ccc54)s3)n2)c1` [Example 2B, (1R)-1-(5-{6-[(4-ethylpyridin-2-yl)amino]-4-methylpyridin-2-yl}-1,3-thiazol-2-yl)-1-hydroxy-2,3-dihydro-1H-indene-5-carboxylic acid], the IC50 was 0.17 nM. As for `Cc1cc(Nc2cc(C3CC3)ccn2)nc(-c2cnc([C@@]3(O)CCc4cc(C(=O)O)ccc43)s2)c1` [Example 2C, (1R)-1-(5-{6-[(4-cyclopropylpyridin-2-yl)amino]-4-methylpyridin-2-yl}-1,3-thiazol-2-yl)-1-hydroxy-2,3-dihydro-1H-indene-5-carboxylic acid], the IC50 turned out to be 0.55 nM.

For `CCOc1ccnc(Nc2cc(C)cc(-c3cnc([C@@]4(O)CCc5cc(C(=O)O)ccc54)s3)n2)c1` [Example 2D, (1R)-1-(5-{6-[(4-ethoxypyridin-2-yl)amino]-4-methylpyridin-2-yl}-1,3-thiazol-2-yl)-1-hydroxy-2,3-dihydro-1H-indene-5-carboxylic acid], the IC50 came to 0.74 nM. As to `CCOc1ccnc(Nc2cc(C)cc(-c3cnc([C@@]4(O)CCCc5cc(C(=O)O)ccc54)s3)n2)c1` [Example 2E, (5R)-5-(5-{6-[(4-ethoxypyridin-2-yl)amino]-4-methylpyridin-2-yl}-1,3-thiazol-2-yl)-5-hydroxy-5,6,7,8-tetrahydronaphthalene-2-carboxylic acid], the IC50 turned out to be 0.16 nM.
